Source: patent US11377425B1, “Small molecule modulators of IL-17” (LEO Pharma A/S, priority 2018, dated 2022)

What was measured:
[1] = In vivo dosing of compounds in mouse (pharmacokinetics, PO and i.v.); conditions: female, Balb/C, whole blood, oral dose of Example 32 50 mg/kg
Protocol: Example 140. In Vivo Dosing of Compounds in Mouse
Mouse pharmacokinetics of Examples 32 and 135 were studied in female Balb/C mice. Animals were not fasted prior to the study and had access to water and certified rodent diet ad libitum during the study. The mice were weighed on the day of the study and the individual dose volumes were adjusted on a per kg body weight basis.
Oral dosing. The mice were dosed by oral gavage. Example 135 was dosed as a suspension in 1% methyl cellulose solution (10 mL/kg). Example 32 was dosed as a suspension in a formulation containing Betadex sulfobutyl ether sodium/PVP (polyvinyl pyrrolidone)/0.1% Citrate buffer pH 3 (20:5:75) (10 mL/kg).
Intravenous dosing. The mice were dosed i.v. via the tail vein. The dose volume was 2 mL/kg of a solution of Example 32 (0.2 mg/mL) in DMSO/ethanol/water/propylene glycol (PG) (2:8:50:40).
Study samples. Blood was collected (exactly 20 μL per time point) from the saphenous vein of each animal into K2EDTA-coated capillaries. […] The compounds were quantified in blood by means of LC-MS/MS.
Standard PK parameters were calculated using non-compartmental analysis in Phoenix WinNonLin 6.4 (Certara, Princeton, N.J.)
(§1) The bioavailabilty (F) was calculated using the equation below, where AUC is the area under the curve for the oral and i.v. dosing routes and D is the dose given i.v. or orally. […]

human IL-17AA = molecular target: T1, human IL-17AA (Homo sapiens, UniProt Q16552); assay: IL-8 release assay in human epithelial keratinocytes adult (HEKa); assay type: cell-based; conditions: HEKa cells, 3 ng/mL HEK-human IL-17AA + 10 ng/mL human TNFalpha; read-out: Rel EC50 IL-8 release assay
T1 construct: host or cells: HEK (human embryonic kidney) cells
T1 sequence (Q16552 24-155): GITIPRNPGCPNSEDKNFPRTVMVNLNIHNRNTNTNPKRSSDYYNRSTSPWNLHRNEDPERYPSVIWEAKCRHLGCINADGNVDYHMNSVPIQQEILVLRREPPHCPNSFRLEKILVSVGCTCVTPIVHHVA
Method in brief: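 IL-8 release, quantified by HTRF and normalized to controls, reports IL-17 signaling in HEKa cells treated with compound plus final 3 ng/mL IL-17AA (HEK-derived) and 10 ng/mL TNF-alpha for 68-72 h; TNF-alpha-only wells set 100% inhibition. Four-parameter logistic fits (r^2>0.9) give relative IC50 and Emax; PrestoBlue flags cytotoxicity.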

[2] = In vivo dosing of compounds in dog (pharmacokinetics, PO and i.v.); design: species or system dog (male Beagles); conditions: male, Beagle, whole blood, oral dose of Example 32 1 mg/kg
Protocol: Example 139. In Vivo Dosing of Compounds in Dog
Dog pharmacokinetics (PK) of Examples 32 and 135 were studied in male Beagles. On the day of dosing, the animals were fasted overnight. They had free access to drinking water, except in immediate connection with dosing, and were allowed to eat from 4 hrs after dosing and onwards. The dogs were weighed on the morning prior to dosing and the individual dose volumes were adjusted on a per kg body weight basis.
Oral dosing. The dogs were dosed PO by oral gavage. The test compounds were dosed as suspensions in 1% methyl cellulose solution (2.5 mL/kg). The stomach tube was then flushed with at least 15 mL water post-dose to ensure that all test formulation entered the stomach.
Intravenous dosing. The dogs were dosed i.v. via an in-dwelling catheter in venae cephalica. The dose volume was 1 mL/kg of a solution of Example 32 (0.3 mg/mL) in HPB (hydroxypropyl beta cyclodextrin)/PEG-4 (polyethylene glycol-4)/water (20:20:60). […]
Study samples. […] The compounds were quantified in blood by means of LC-MS/MS.
Standard PK parameters were calculated using non-compartmental analysis and Phoenix WinNonLin 6.4 (Certara, Princeton, N.J.).
as §1

Row | Structure (SMILES) | bioavailability [1] [%] | EC50 (human IL-17AA) [µM] | bioavailability [2] [%]
1 | Cc1n[nH]c(C)c1-c1ccc(NC(=O)[C@@H](NC(=O)c2ccnn2C(C)C)C(C2CC2)C2CC2)cc1 (single isomer, unassigned) [Example 32] | 26 | < 0.1 | 23
2 | CNc1[nH]nc(C)c1-c1ccc(NC(=O)[C@@H](NC(=O)c2ccnn2C)C2CCCCC2)cc1 [Example 452, N-[(1S)-1-cyclohexyl-2-[4-[5-methyl-3-(methylamino)-1H-pyrazol-4-yl]anilino]-2-oxo-ethyl]-2-methyl-pyrazole-3-carboxamide] | – | > 1 | –
3 | Cc1n[nH]c(N(C)C)c1-c1ccc(NC(=O)[C@@H](NC(=O)c2ccnn2C)C2CCCCC2)cc1 [Example 453, N-[(1S)-1-cyclohexyl-2-[4-[3-(dimethylamino)-5-methyl-1H-pyrazol-4-yl]anilino]-2-oxo-ethyl]-2-methyl-pyrazole-3-carboxamide] | – | 0.1 to 1 | –
4 | Cc1n[nH]c(C)c1-c1ccc(NC(=O)[C@@H](NC(=O)N2CCCCC2)C2CCCCC2)cc1 [Example 472, N-[(1S)-1-cyclohexyl-2-[4-(3,5-dimethyl-1H-pyrazol-4-yl)anilino]-2-oxo-ethyl]piperidine-1-carboxamide] | – | > 1 | –
5 | Cc1n[nH]c(C)c1-c1ccc(NC(=O)[C@@H](NC(=O)OCCCCO)C(C2CC2)C2CC2)cc1 [Example 479, 4-hydroxy butyl N-[(1S)-1-(dicyclopropylmethyl)-2-[4-(3,5-dimethyl-1H-pyrazol-4-yl)anilino]-2-oxo-ethyl]carbamate] | – | 0.1 to 1 | –
6 | Cc1n[nH]c(C)c1-c1ccc(NC(=O)[C@@H](NC(=O)O[C@H](C)CC[C@@H](C)O)C(C2CC2)C2CC2)cc1 [Example 480, [(1R,4R)-4-hydroxy-1-methyl-pentyl] N-[(1S)-1-(dicyclopropylmethyl)-2-[4-(3,5-dimethyl-1H-pyrazol-4-yl)anilino]-2-oxo-ethyl]carbamate] | – | 0.1 to 1 | –
7 | Cc1n[nH]c(C)c1-c1ccc(NC(=O)[C@@H](NC(=O)O[C@@H](C)CC[C@H](C)O)C(C2CC2)C2CC2)cc1 [Example 481, [(1S,4S)-4-hydroxy-1-methyl-pentyl] N-[(1S)-1-(dicyclopropylmethyl)-2-[4-(3,5-dimethyl-1H-pyrazol-4-yl)anilino]-2-oxo-ethyl]carbamate] | – | > 1 | –
8 | Cc1nn(COP(=O)(O)O)c(C)c1-c1ccc(NC(=O)[C@@H](NC(=O)c2ccnn2[C@@H](C)CO)C(C2CC2)C2CC2)cc1 [Example 483, Disodium [4-[4-[[(2S)-3,3-dicyclopropyl-2-[[2-[(1S)-2-hydroxy-1-methyl-ethyl]pyrazole-3-carbonyl]amino]propanoyl]amino]phenyl]-3,5-dimethyl-pyrazol-1-yl]methyl phosphate] | – | < 0.1 | –

Results, then the molecule that gave them:

Row | bioavailability [1] [%] | EC50 (human IL-17AA) [µM] | bioavailability [2] [%] | Structure (SMILES)
9 | – | > 1 | – | Cc1n[nH]c(C)c1-c1ccc(NC(=O)[C@@H](NC(=O)N(C)CCCO)C2CCCCC2)cc1 [Example 459, (2S)-2-cyclohexyl-N-[4-(3,5-dimethyl-1H-pyrazol-4-yl)phenyl]-2-[[3-hydroxypropyl(methyl)carbamoyl]amino]acetamide]
10 | – | > 1 | – | CCN(CC)C(=O)N[C@H](C(=O)Nc1ccc(-c2c(C)n[nH]c2C)cc1)C1CCCCC1 [Example 462, (2S)-2-cyclohexyl-2-(diethylcarbamoylamino)-N-[4-(3,5-dimethyl-1H-pyrazol-4-yl)phenyl]acetamide]
11 | – | > 1 | – | Cc1n[nH]c(C)c1-c1ccc(NC(=O)[C@@H](NC(=O)N(C)CCO)C2CCCCC2)cc1 [Example 463, (2S)-2-cyclohexyl-N-[4-(3,5-dimethyl-1H-pyrazol-4-yl)phenyl]-2-[[2-hydroxyethyl(methyl)carbamoyl]amino]acetamide]
12 | – | > 1 | – | Cc1n[nH]c(C)c1-c1ccc(NC(=O)[C@@H](NC(=O)N2CCCC2CCCO)C2CCCCC2)cc1 (stereo partly drawn) [Example 468, N-[(1S)-1-cyclohexyl-2-[4-(3,5-dimethyl-1H-pyrazol-4-yl)anilino]-2-oxo-ethyl]-2-(3-hydroxypropyl)-pyrrolidine-1-carboxamide]
13 | – | 0.1 to 1 | – | Cc1n[nH]c(C)c1-c1ccc(NC(=O)[C@@H](NC(=O)N(C)C(C)C)C2CCCCC2)cc1 [Example 469, (2S)-2-cyclohexyl-N-[4-(3,5-dimethyl-1H-pyrazol-4-yl)phenyl]-2-[[isopropyl(methyl)carbamoyl]amino]acetamide]
14 | – | > 1 | – | Cc1n[nH]c(C)c1-c1ccc(NC(=O)[C@@H](NC(=O)N2CCCC2C(C)C)C2CCCCC2)cc1 (stereo partly drawn) [Example 475, N-[(1S)-1-cyclohexyl-2-[4-(3,5-dimethyl-1H-pyrazol-4-yl)anilino]-2-oxo-ethyl]-2-isopropyl-pyrrolidine-1-carboxamide]
15 | – | 0.1 to 1 | – | Cc1n[nH]c(C)c1-c1ccc(NC(=O)[C@@H](NC(=O)N(C)CCCCO)C2CCCCC2)cc1 [Example 476, (2S)-2-cyclohexyl-N-[4-(3,5-dimethyl-1H-pyrazol-4-yl)phenyl]-2-[[4-hydroxybutyl(methyl)carbamoyl]amino]acetamide]
16 | – | > 1 | – | Cc1n[nH]c(C)c1-c1ccc(NC(=O)[C@@H](NC(=O)N2CCCC2)C2CCCCC2)cc1 [Example 477, N-[(1S)-1-cyclohexyl-2-[4-(3,5-dimethyl-1H-pyrazol-4-yl)anilino]-2-oxo-ethyl]pyrrolidine-1-carboxamide]
17 | – | > 1 | – | Cc1n[nH]c(C)c1-c1ccc(NC(=O)[C@@H](NC(=O)N2CCOCC2)C2CCCCC2)cc1 [Example 478, N-[(1S)-1-cyclohexyl-2-[4-(3,5-dimethyl-1H-pyrazol-4-yl)anilino]-2-oxo-ethyl]morpholine-4-carboxamide]
